Entries after “also recorded” stand apart in the source; their conditions may differ. Each block holds one substance with its values, some of them ahead of it. No end group written: not given here.
What was measured:
[1] = test system: SKOV3 cells; test: Boyden chamber migration of SKOV3 cells induced by NIH3T3-CM/VEGF; type: cell-based; details: for Effective concentration for cell migration inhibition, lower end / Effective concentration for cell migration inhibition, upper end: SKOV3 migration
Description: (§1) A2780 (FIG. 10a) and SKOV3 (FIG. 10b) cells were incubated with the indicated concentrations of Å6 peptide for 30 min at 37° C. Aliquots representing 6,000 cells were placed on quadruplicate, CnI-coated filters (8 μm pores) in Boyden chambers and the cells allowed to migrate overnight in response to 10 ng/ml VEGF in NIH3T3-conditioned media containing the indicated concentrations of Å6. Upon completion of migration, the apical surfaces of the membranes were wiped clean and the migrating cells on the basal surface were stained with Geimsa stain and the cells present in representative fields of the membranes counted. Data represent the averages+/−standard deviations obtained from the replicate filters. […] This provides further confirmation that CD44 is the target for the Å6 peptide.
SKOV3 cells are harvested by trypsinization and washed once with RPMI-0.5% BSA. Next, the cells are re-suspended in RPMI+0.5% BSA@6E4/mL (6000 cells/100 μL). The peptide is pre-treated with 500 μL of cells added to 500 μL peptide NASAPPEE (SEQ ID NO: 3) (2× concentration, final conc, at 100, 10, 1, 0.1, 0.01, 0.001 uM) and the mixture incubated 30 minutes at 37° C., under 5% CO2. The Boyden chamber is assembled by: Placing in the bottom chambers: 220 μL of serum/BSA free DMEM or NIH3T3CM+10 ng/ml VEGF or NIH3T3CM+10 ng/ml VEGF+peptide. Place 8 μm filters on the top of the bottom chambers. The 8 μm filters are coated with 1 mg/ml collagen I at 4° C. overnight, washed with PBS twice, air dry before use. Add 200 μL of cells with or without peptide pretreatment to the top of Boyden chamber. Note that the peptide is in both top and bottom chambers. Cells migrate overnight at 37° C., under 5% CO2 in incubator. Next, Boyden chambers are disassembled the and filters collected. The cells on the filters after collection are treated with −20° C. methanol for 3 minutes at room temperature and stained with 30% Geimsa for 7 minutes at room temperature, and washed with water twice. The filters are mounted on slides, air dried and the cells counted.
Cell numbers were obtained by counting the cells in four fields of filters using a 40× objective. The cells migrating into the bottom chambers were also counted as follows: a) 200 μL fluid in the bottom chamber was transferred to a well of 96-well plate; b) The plate was centrifuged at 1200 rpm for 5 minutes; c) 180 μL of supernatant was removed; d) The cell pellet was resuspended with the remaining 20 μL fluid and the cells counted using a hemocytometer. […] This compares favorably to the Å6 peptide which is effective between 5 μM and 100 nM.

[2] = test system: A2780 cells; test: Boyden chamber chemotaxis of A2780 cells; type: cell-based; details: 10 ng/ml VEGF in NIH3T3-conditioned media, overnight
Description: as §1

[3] = test system: A2780 cells; test: Adhesion of A2780 cells to hyaluronic acid; type: cell-based; details: immobilized HA; 1 or 10 μM Å6
Description: In FIG. 12 A2780 cells were cultured overnight with or without 10 μM Å6 or 100 ng/ml PMA. The cells were then detached, washed and loaded with 20 μg/ml CFDA-SE for 30 min at 37° C. After washing, the cells were resuspended in PBS containing 10% FCS and triplicate aliquots representing 100,000 cells incubated for 30 min at room temperature with no additions, 1 or 10 μM Å6 or with 20 ng/ml IM7, a blocking anti-CD44 rat monoclonal antibody. The cells were then placed into microtiter wells that had been coated with 50 ul of 1 mg/ml HA overnight and blocked for 30 min with 10% FCS. The cells were allowed to adhere at room temperature for 30 min after which, the wells were decanted and washed 3 times. The fluorescence in each well was assessed (excit./emiss.: 460/536 nm) and the mean fluorescence values (+/standard deviation) of the triplicate determinations calculated.

[4] = target: T1, CD44 (Homo sapiens, UniProt P16070); test: Immunoprecipitation of Å6Cbio-crosslinked SKOV3 polypeptides with anti-CD44, HRP-SA blotting; type: binding; details: SKOV3 cells, 100 μM Å6Cbiotin, BS3 crosslinking, anti-CD44 DF1485
T1 construct: endogenous in cells; host or cells: SKOV3
Description: In FIGS. 1 and 2 SKOV3 cells were incubated with or without 100 μM Å6Cbiotin (Å6CbioXL and ConXL, respectively) for 30 min at 4° C. The cells were then crosslinked with 5 mM bis(sulfosuccinimidyl) suberate (Sulfo-DSS or BS^3) for 30 min at 4° C. and Triton X-100 lysates generated. The lysates were pre-cleared by incubating with Protein A-agarose for 2 hr at room temperature. Aliquots representing 100 μg of the cleared lysates were then incubated overnight at room temperature with 20 μL of Protein A-agarose plus 2 μg of anti-Tenascin R (TnR; E-18, Santa Cruz Biotech.), anti-Tenascin C (TnC; 300-3, Santa Cruz Biotech.), anti-CD44 (DF1485, Santa Cruz Biotech.), anti-Plexin-A1 (P1 A1; H-60, Santa Cruz Biotech.) or murine IgG1 (Sigma Chem. Co.). After washing 5 times with lysis buffer, the immunoprecipitated polypeptides were eluted from the Protein A-agarose by boiling in SDS-PAGE sample buffer. The eluted material and 2 μg aliquots of the starting material were then subjected to SDS-PAGE, transfer to PVDF membranes and blotting with chemiluminescent horseradish peroxidase (HRP)-conjugated streptavidin (HRP-SA).
In FIG. 3 SKOV3 cells were incubated with or without 100 μM Å6Cbiotin (Å6CbioXL and control, respectively) for 30 minutes at 4° C. The cells were then crosslinked with 5 mM BS3 for 30 min at 4° C. […]

[5] = test system: B16 melanoma cells; test: B16 melanoma lung metastasis model; type: in vivo, C57BL/6J mice; details: about 1×10^5 melanoma cells injected in the tail vein
Description: The B16 melanoma metastasis is well known in the art. A typical protocol for assessing the inhibitory effect of a compound on metastasis is described below. Such a protocol was followed to assess the effect of Å6 on metastasis.
Briefly, B16 melanoma cells can be cultured in RPMI-1640 with 10% fetal bovine serum at 37° C. in an atmosphere of 95% air and 5% CO2. C57BL/6J mice of six to eight weeks can be purchased from commercial suppliers. For the lung metastasis model, about 1×10^5 melanoma cells suspended in 100 μl saline were injected in the tail vein in the presence or absence of Å6. Administration of the Å6 peptide inhibited the lung metastasis by 50% or more.

[6] = target: T1, CD44; test: Dimerization of CD44 in SKOV3 cells, anti-CD44 B-F24 immunoblot; type: cell-based; details: SKOV3 cultured 20 hr with 1 or 10 μM Å6, non-reducing
Description: In FIG. 13 SKOV3 cells were cultured for 20 hr with no additions, 1 or 10 μM Å6 or 100 ng/ml PMA. Triton X-100 lysates were generated and further solubilized in SDS-PAGE sample buffer under non-reducing conditions. Aliquots representing 7.5 μg of cellular protein were subjected to SDS-PAGE followed by immunoblot analysis with the anti-CD44 murine monoclonal B-F24. The presence of stained higher molecular weight bands can be indicative of CD44 dimers and/or oligomers.

[7] = target: T2, CD44 on SKOV3 cells (Homo sapiens, UniProt P16070); test: FACs analysis of anti-CD44 (DF1485) binding to SKOV3 cells in the presence of Å6; type: cell-based; details: pre-incubation with Å6 on ice 10 or 30 min, FACS MnI
T2 construct: endogenous in cells; host or cells: SKOV3
Description: In FIG. 4 SKOV3 cells were detached from their culture flasks by brief trypsinization, washed twice with DPBS and incubated on ice with the indicated concentrations of Å6 for 10 min (exp. 1) or 30 min (exp. 2). Anti-CD44 (DF1485; Santa Cruz Biotech.) or its isotype control were then added to final concentrations of 1 μg/ml (exp. 1) or 1 and 0.5 μg/ml (exp. 2) and the cells incubated for 1 hr on ice. The cells were washed once and incubated with FITC-conjugated donkey anti-mouse IgG (H+L) for 30 minutes on ice and then subjected to FACS analysis with a Beckman Coulter Epics XL-MCL cytofluorimeter. Data analysis was performed using the Coulter Epics software. Note: Data are presented as mean fluorescence intensities (MnI) obtained with the MnI of the negative control in each experiment adjusted to <0.5 during data collection. […] Similar CD44 expression in ovarian cancer lines using different anti-CD44 antibodies is assessed in FIG. 5, for which the MnI values are summarized in FIG. 6.

[8] = target: T2, CD44 on SKOV3 cells; test: FACs analysis of IM7 binding to SKOV3 cells in the presence of Å6; type: cell-based; details: IM7 1 μg/ml, 4° C.
Description: In FIGS. 14a and 14b SKOV3 cells were incubated with the indicated concentrations of Å6 for 30 min at 4° C. IM7 (1 μg/ml) was then added and allowed to bind for 30 min at 4° C., after which the cells were washed and incubated with FITC-donkey anti-rat IgG for 30 min at 4° C. The cells were washed once and then subjected to FACs analysis.

[9] = test system: SKOV3 cells; test: Adhesion of SKOV3 cells to hyaluronic acid; type: cell-based
Description: In FIG. 11 SKOV3 cells were cultured overnight with or without 10 μM Å6 or 100 ng/ml PMA. The cells were then detached, washed and loaded with 20 μg/ml CFDA-SE for 30 min at 37° C. After washing, the cells were resuspended in PBS containing 10% FCS and triplicate aliquots representing 100,000 cells incubated for 30 min at room temperature with no additions, 1 or 10 uM Å6 or with 20 ng/ml IM7, a blocking anti-CD44 rat monoclonal antibody. The cells were then placed into microtiter wells that had been coated with 50 μl, of 1 mg/mL HA overnight and blocked for 30 min with 10% FCS. The cells were allowed to adhere at room temperature for 30 minutes after which, the wells were decanted and washed 3 times. The fluorescence in each well was assessed (excit./emiss.: 460/536 nm) and the mean fluorescence values (+/standard deviation) of the triplicate determinations calculated. […] The control experiment with IM7 (graphs on far right) indicates inhibition of SKOV3 binding to HA in the presence of this anti-CD44, which indicates a role for CD44 in binding HA.

[10] = target: T1, CD44; test: Anti-CD44 (DF1485) immunoblot analysis of Å6CbioXL polypeptides and Å6-BSA; type: binding; details: SKOV3 lysates
Description: In FIG. 7 30 μg aliquots of Å6CbioXL and control (ConXL) SKOV3 lysates, as well as 2 μg aliquots of Å6-crosslinked BSA (Å6-BSA) and BSA, were subjected to immunoblot analysis using the DF1485 anti-CD44 antibody (Santa Cruz Biotech). The DF1485 blots were stained with HRP-conjugated sheep anti-Mouse IgG; heavy and light chain specific (GE Health Sciences). The rabbit anti-Å6 blot was stained with HRP-conjugated donkey anti-rabbit IgG; heavy and light chain specific (Jackson Immunoresearch). Stained bands were visualized by the ECL-plus chemiluminescence reagent (GE Health Sciences) and exposure to Hyperfilm ECL film (GE). In panel 1, anti-CD44 produced bands in the Å6CbioXL (A lane) and control (C) lane. […] In addition, 2 μg aliquots of the Å6CbioXL and ConXL lysates were concurrently blotted with HRP-streptavidin to identify polypeptides labeled with Å6Cbio, and shown in panel 2. 2 μg of Å6-BSA and BSA were also blotted with Rb anti-Å6 to confirm the presence of Å6 on the Å6-BSA, as shown in the third panel of FIG. 7.

T1 sequence (P16070 21-742): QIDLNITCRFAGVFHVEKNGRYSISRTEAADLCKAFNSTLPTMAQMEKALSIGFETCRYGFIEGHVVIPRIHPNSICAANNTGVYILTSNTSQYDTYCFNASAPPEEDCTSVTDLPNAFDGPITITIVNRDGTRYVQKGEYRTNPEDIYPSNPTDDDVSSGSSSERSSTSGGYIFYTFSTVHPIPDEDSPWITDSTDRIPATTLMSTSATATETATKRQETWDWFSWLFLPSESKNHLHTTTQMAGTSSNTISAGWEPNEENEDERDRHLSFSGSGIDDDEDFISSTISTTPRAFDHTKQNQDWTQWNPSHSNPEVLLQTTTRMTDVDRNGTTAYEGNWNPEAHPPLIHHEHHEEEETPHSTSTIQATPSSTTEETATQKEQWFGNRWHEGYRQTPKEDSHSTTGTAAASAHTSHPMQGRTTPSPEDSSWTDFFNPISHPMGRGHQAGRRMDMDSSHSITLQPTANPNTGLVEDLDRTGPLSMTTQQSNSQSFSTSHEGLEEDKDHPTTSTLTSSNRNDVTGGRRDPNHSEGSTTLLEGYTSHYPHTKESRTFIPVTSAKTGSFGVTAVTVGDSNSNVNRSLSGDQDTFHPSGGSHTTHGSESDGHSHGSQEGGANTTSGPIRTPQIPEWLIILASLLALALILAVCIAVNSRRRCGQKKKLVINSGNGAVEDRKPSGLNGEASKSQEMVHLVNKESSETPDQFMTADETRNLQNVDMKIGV
T2 sequence (P16070 21-742): as above

Formation of higher molecular weight CD44 bands (dimers/oligomers) [6]: higher molecular weight bands are formed
Substance: Ac-KPSSPPEE-Am (Ac-KPSSPPEE-NH2) [Å6]
Effect on migration of SKOV3 cells ([1]; 10 ng/ml VEGF in NIH3T3-conditioned media, overnight): strong inhibition
Effective concentration for cell migration inhibition, lower end [1]: 100 nM
Effective concentration for cell migration inhibition, upper end [1]: 5 µM
Effect on migration of A2780 cells [2]: essentially unaffected
Effect on A2780 binding to HA [3]: does not substantially modulate
Target identified by immunoprecipitation of crosslinked biotinylated peptide [4]: targets CD44; also recorded: CD44 as the target
Inhibition of lung metastasis [5]: ≥ 50%
Effect on binding of DF1485 anti-CD44 to SKOV3 cells [7]: inhibits the binding of DF1485 anti-CD44 to SKOV3 cells
Effect on IM7 antibody binding to SKOV3 cells [8]: increase in antibody binding with increasing concentration
Effect of a 10-fold increase in peptide concentration on SKOV3 binding to HA ([9]; 1 vs 10 μM Å6): little effect
Effect on SKOV3 binding to HA ([9]; immobilized HA, 1 or 10 μM Å6, 20 ng/ml IM7): enhanced

Substance: NASAPPEE
Effective concentration for cell migration inhibition, lower end [1]: 1 nM
Effective concentration for cell migration inhibition, upper end [1]: 100 µM

Effect on binding of anti-CD44 to CD44 (band intensity) [10]: reduces the binding of anti-CD44 to CD44
Substance: Å6CbioXL: SKOV3 cells incubated with 100 μM Å6Cbiotin and crosslinked with BS3; lysate polypeptides labeled with Å6Cbio (KPSSPPEE; also: biotin label (Cbio) at an unstated position, BS3 crosslinked to cell polypeptides)
